The test system of one assay is LXRα. As to the kind of experiment: LXRα expression in HepG2 cells. Format: cell-based. Conditions: HepG2, 10^−9-10^−5 M. As for the experimental part: HepG2 cells were treated with various concentrations of drugs for 24 hours. […] All of the fractionated protein solutions were stored at −80° C. until analysis. To measure the expression levels of proteins by drugs, the total cell protein was extracted after incubation with treatments for 24 hours and then Western blotting analysis was performed as described previously.

The next assay concerns PKA. Kind of assay: Hepatic PKA expression (14-week experiment). Format: in vivo, mice. Conditions: drinking KMUP-1; protection and treatment groups.
The subject of another assay is PKG. As to the kind of experiment: PKG expression and immunoreactivity in HepG2 cells. The class given is cell-based.
For another assay, the system named is ApoA-I. As to the kind of experiment: ApoA-I expression in HepG2 cells. Conditions: HepG2, 10^−9-10^−5 M. The class given is cell-based. The method, then:
(§1) HepG2 cells were treated with various concentrations of drugs for 24 hours. Reactions were terminated by washing twice with cold PBS, and the cells were then harvested, Proteins in the whole-cell lysate were homogenized in an ice-cold lysis buffer and a protease inhibitor (Sigma-Aldrich, St. Louis, Mo., U.S.A.). The homogenate was centrifuged at 90, 000 g for 15 minutes at 4° C., and supernatant was recovered as the total cellular protein. Cytosolic and membrane fractions of HepG2 cells were prepared using a. CNM (Cytosol Nuclear Membrane) compartment protein extraction kit (BioChain Institute Inc., Hayward, Calif., U.S.A.) according to the manufacturer's instructions. All of the fractionated protein solutions were stored at −80° C. until analysis. To measure the expression levels of proteins by drugs, the total cell protein was extracted after incubation with treatments for 24 hours and then Western blotting analysis was performed as described previously.

Another assay concerns mice fed a HFD. Kind of assay: HFD-fed mice, 14-week experiment: body weight, liver morphology, H&E, oil globulets. The class given is in vivo. The method, then:
(§2) In the 14-week experiment, mice were fed a HFD from week 1 to week 14. During the 3 month experiments, KMUP-1 HCl (2.5 mg) was added to 200 ml tap water and) and drink for 14 weeks or for the last 6 weeks on mice or obese mice fed HFD, separately. 5 mice had free access to drinking water from week 1 to week 14 (protective group) or from week 8 to week 14 (treatment group). Tap water was used to normalize mineral nutrition (Scheme A).
The diameter of the white bar in the photograph was standardized at 100 μM for measuring the specific diameter of oil globulets in a whole liver slice, observed by microscope, with the aid of Powerpoint PC computer software (Microsoft®, USA) and printed out by a Hewlett-Packard® printer (USA). An increase in oil globulet diameter and cell number indicated increasing liver steatosis, i.e. steaotohepatitis. In contrast, decrease in diameter and the number of fat cells indicated the inhibition of steaotohepatitis. […] Hematoxylin-eosin (H&E) and […] staining of liver were used to assess oil globulet numbers under a microscope.
(§3) Mice liver and epididymal fat pads were cut and soaked in formalin, dehydrated through graded alcohols and embedded in paraffin. Specimens of liver tissues and epididymal fat pads fixed with formalin (4%) were embedded in paraffin for one hour at 4° C., cut into […] sections, and subjected to H&E staining before examination by light microscope. In heart tissues, the 4-μm-thick paraffin sections were cut from paraffin-embedded tissue blocks and de-paraffinized by immersion in xylene and rehydrated. The slices were then dyed with H&E. After gently rinsing with water, each slide was dehydrated through graded alcohols and finally soaked in xylene twice.
Hematoxylin-eosin (H&E) and IHC staining of liver were used to assess oil globulet numbers under a microscope. A 100 μM white bar was used to determine oil globule sizes in the liver. Oil globulets in a cell were counted from larger to smaller until size limitations were reached. Increases of oil globulet diameter and number indicated increasing liver steatosis. In contrast, a decrease in oil globulet diameters and numbers could indicate the inhibition of liver steatosis. Oil globulets were measured using a Nikon Eclipse TE200-S microscope, aided by Powerpoint computer software (Microsoft®) and printed by a HP® printer to measure the diameter and number of oil globulets on paper. Counting: of oil globules was performed from larger to smaller ones until the observation reached its limit.

A further assay has as its system ABCA1. As to the kind of experiment: ABCA1 expression in HepG2 cells. The class given is cell-based. As for the experimental part:
as §1

Another assay deals with Rho-kinase. As to the kind of experiment: Table 3 Rho-kinase (% of control). The class given is cell-based. The settings on record: control group = 100 (%).
For assay [1], the target named is T1, Human recombinant HMG CoA reductase (Homo sapiens, UniProt P04035).
T1 construct: purchased Sigma-Aldrich (printed 'Sigma-Adrich') H7039; host or cells: E. coli
As to the kind of experiment: HMG CoA reductase activity, [14C]mevalonate formation. Format: biochemical. The settings on record: 10 μM. As for the experimental part: Human recombinant HMG CoA reductase expressed in E. coli (H7039, Sigma-Adrich, Mo, U.S.A.) was used. Human recombinant HMG-CoA reductase, examined by SDS-PAGE to be ≧90% in purity, 2-8 units/mg protein in activity and ˜76 kDa in molecular weight (H7039, Sigma-Adrich, St. Louis, Mo. U.S.A.), was used for determining the formation of [^14C]mevalonate. […] The reaction was initiated by the addition of 2.5 μM [^14C]HMG-CoA for another 20 minutes incubation period and terminated by further addition of 1 N HCl. An aliquot was removed by column and counted to determine the amount of [^14C]mevalonate formed (Ricera® Co. Ltd., Taipei, Taiwan).

The next assay has as its system ATGL. As to the kind of experiment: IHC staining of ATGL in steatohepatitis liver. The settings on record: more prominent in protection than treatment groups. The class given is in vivo, mice. As for the experimental part: as §2
For IHC of MMP-9/TNFα, HSL/p-HSL/ATGL and eNOS/IL-10, antigen retrieval of de-paraffinated sections was performed in Dako target retrieval solution, pH 9.0, in a vegetable steamer followed by the quenching of endogenous peroxidase activity with 3.0% H2O2 in methanol. Sections were then incubated with specific primary antibodies overnight at 4° C. in a humidified chamber. The antibodies used included rabbit polyclonal anti-eNOS (1:50 dilution) (Abcam, Cambridge, UK) or rabbit monoclonal anti-cleaved caspase-3 (1:50 dilution) (Cell Signaling, USA). The sections were then examined using a DAKO REAL EnVision™ Detection System kit (DAKO, Carpinteria, Calif.) and counterstained with hematoxylin. Images were obtained through a Nikon Eclipse TE200-S microscope.

The next assay has as its system epididymal fat pads. As to the kind of experiment: H&E staining, weight and cell diameter of epididymal fat pads. Format: in vivo, mice. As for the experimental part: as §2, §3
The next assay deals with p-HSL. As to the kind of experiment: Table 3 p-HSL (% of control). Format: cell-based. The settings on record: control group = 100 (%).

The structures appear in SMILES notation.

T1 sequence (P04035 426-888 limits assumed): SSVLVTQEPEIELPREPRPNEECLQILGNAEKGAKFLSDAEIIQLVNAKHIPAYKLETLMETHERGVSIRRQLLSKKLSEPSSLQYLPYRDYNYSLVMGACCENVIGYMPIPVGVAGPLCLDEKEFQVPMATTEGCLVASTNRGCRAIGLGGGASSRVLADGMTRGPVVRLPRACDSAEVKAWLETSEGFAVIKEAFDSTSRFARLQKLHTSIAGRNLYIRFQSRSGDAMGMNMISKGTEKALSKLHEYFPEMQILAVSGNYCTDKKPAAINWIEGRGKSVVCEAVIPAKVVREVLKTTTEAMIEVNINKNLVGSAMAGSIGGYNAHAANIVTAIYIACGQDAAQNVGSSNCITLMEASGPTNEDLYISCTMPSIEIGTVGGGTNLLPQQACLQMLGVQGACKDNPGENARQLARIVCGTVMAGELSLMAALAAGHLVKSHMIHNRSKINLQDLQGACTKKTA

As for `Cn1c(=O)c2c(ncn2CCN2CCN(c3ccccc3Cl)CC2)n(C)c1=O` [KMUP-1, 7-[2-[4-(2-chlorophenyl)piperazinyl]ethyl]-1,3-dimethyl xanthine], the LXRα expression result with LXRα is “concentration-dependently increased”. Moreover, the “hepatic PKA expression” value with PKA was “promote”. Further, in the assay on PKG (10, 20, 40 µM, in the presence of LDL (500 μg/mL)), the “expression of PKG” value is recorded as “increased”. Besides, the PKG immunoreactivity entry with PKG (data not shown) is recorded as “not significantly affected”. For the same compound, the ApoA-I expression entry in the assay on ApoA-I is reported as “concentration-dependently increased”. Besides, in the assay on mice fed a HFD (oral 2.5 mg/kg, last 6 weeks/14 weeks), the “fat globules and Mallory's hyaline bodies (H&E staining of liver)” value was “reduced”. Moreover, the “oil globulet number and changes of oil globulet diameter in liver” value in the assay on mice fed a HFD (treatment and protection groups) is listed as “sharply reduced”. In the assay on ABCA1 (HepG2, 10^−9-10^−5 M), the “expression of ABCA1” value is on record as “increased”. In the assay with ABCA1 (HepG2, KMUP-1 10^−9-10^−5 M with FPP or GGPP), the “FPP- or GGPP-suppressed expression of ABCA1” value was “reversed”. For the same compound, the “ABCA1 expression (FIG. 24D)” value in the assay with ABCA1 (HepG2, simvastatin, KMUP-1, Y27632 10^−5M, C3 exoenzyme) is listed as “increased”. For the same compound, the Rho-kinase is 82.8 ± 7.8% with Rho-kinase (0.1 μM), 78.4 ± 6.9% in the assay on Rho-kinase (1.0 μM) and 75.8 ± 6.4% in the assay with Rho-kinase (10 μM). Further, the “[14C]mevalonate formation” value in assay [1] is “could not reduce”. Moreover, the “ATGL lipolysis (IHC, liver)” value with ATGL was “induced”. For the same compound, the “epididymal fat pad weight” value in the assay with epididymal fat pads (2.5 mg/kg/day for 14 weeks) is reported as “significantly reduced”. Also, the fat cell diameter result in the assay with epididymal fat pads (2.5 mg/kg/day for 14 weeks) is “significantly reduced”. For the same compound, in the assay with epididymal fat pads (protection, 2.5 mg/kg), the “HFD-induced hypertrophy/hyperplasia of epididymal fat pads (H&E)” value is “inhibited”. The p-HSL in the assay with p-HSL (0.1 μM) turned out to be 120.7 ± 15.3%; in the assay on p-HSL (1.0 μM), 138.6 ± 14.7%; in the assay on p-HSL (10 μM), 144.6 ± 12.3%.

The record behind these values is patent US20150359798A1, “PIPERAZINYL DERIVATIVE REDUCES HIGH-FAT DIET-INDUCED ACCUMULATION OF FAT IN THE LIVERS, […]” (priority 2011, published 2015).
